ChEMBL document CHEMBL3397011, “A novel molecule with notable activity against multi-drug resistant tuberculosis” (Bioorg Med Chem Lett, 2015)
Values after ≈ are worked out from the molar mass of the structure shown. Active and inactive are the calls of the source. The rule behind the calls is not given here.

Key:
Format in all cases: functional
[1] = system: Mycobacterium tuberculosis; assay: Antimicrobial activity against isoniazid and rifampin resistant Mycobacterium tuberculosis after 21 days at 37 degC by agar dilution drug susceptibility assay
[2] = system: Mycobacterium tuberculosis; assay: (§1) Antimicrobial activity against isoniazid and rifampin resistant Mycobacterium tuberculosis after 21 days at 37 degC in presence of 1-(4-(4-(1H-pyrrol-1-yl)phenyl)piperazin-1-yl)-4-(5-(3,5-difluorobenzyl)-1-(2-fluorobenzyl)-2-oxo-1,2-dihydropyridin-3-yl)-2-hydroxybut-2-ene-1,4-dione by agar dilution drug susceptibility assay
[3] = system: Mycobacterium tuberculosis; assay: as §1, with “tuberculosis assessed as reduction in colony forming unit” for “tuberculosis”; set-up: scale not given: the % may be the effect or the level left
[4] = system: Mycobacterium tuberculosis; assay: as §1, with “tuberculosis assessed as ratio of MIC combination/MIC compound alone” for “tuberculosis”
[5] = system: Mycobacterium tuberculosis; assay: Antimicrobial activity against isoniazid and rifampin resistant Mycobacterium tuberculosis assessed as ratio of MIC combination/MIC compound alone after 21 days at 37 degC in presence of PA-824 by agar dilution drug susceptibility assay
[6] = system: Mycobacterium tuberculosis; assay: Antimicrobial activity against isoniazid and rifampin resistant Mycobacterium tuberculosis after 21 days at 37 degC in presence of PA-824 by agar dilution drug susceptibility assay; conditions: 504 h
[7] = system: Mycobacterium tuberculosis; assay: Antimicrobial activity against isoniazid and rifampin resistant Mycobacterium tuberculosis assessed as reduction in colony forming unit after 21 days at 37 degC in presence of PA-824 by agar dilution drug susceptibility assay; set-up: scale not given: the % may be the effect or the level left

`O=C(/C=C(\O)C(=O)N1CCN(c2ccc(-n3ccnc3)cc2)CC1)c1cc(Cc2cc(F)cc(F)c2)cn(Cc2ccccc2F)c1=O` showed an MIC ([1]; 504 h) of 6.25 µg/mL (≈ 9.56 µM).
`O=C(/C=C(\O)C(=O)N1CCN(c2ccc(-n3cccc3)cc2)CC1)c1cc(Cc2ccccc2)cn(Cc2ccccc2)c1=O` was tested, and the MIC ([1]; 504 h) was 3.12 µg/mL (≈ 5.22 µM).
Compound `O=[N+]([O-])c1cn2c(n1)OC[C@@H](OCc1ccc(OC(F)(F)F)cc1)C2` [PRETOMANID] has an MIC [2] of 0.031 µg/mL, an MIC ([1]; 504 h) of 0.126 µg/mL (≈ 0.351 µM) and an Activity [3] greater than 99%. The “fractional inhibitory concentration index (FICI)” value [4] was 0.246.
With `O=C(/C=C(\O)C(=O)N1CCN(c2ccc(-n3cccn3)cc2)CC1)c1cc(Cc2cc(F)cc(F)c2)cn(Cc2ccccc2F)c1=O` the MIC ([1]; 504 h) was 3.12 µg/mL (≈ 4.78 µM).
In the case of `O=C(/C=C(\O)C(=O)N1CCN(c2ccc(-n3cccc3)cc2)CC1)c1cc(Cc2cc(F)cc(F)c2)cn(Cc2ccccc2F)c1=O`, the “fractional inhibitory concentration index (FICI)” value [5] is reported as 0.125, the MIC [6] is reported as 0.195 µg/mL and the MIC ([1]; 504 h) is reported as 1.56 µg/mL (≈ 2.39 µM). The Activity [7] was greater than 99%.
`CN[C@@H]1[C@H](O[C@H]2[C@H](O[C@H]3[C@H](O)[C@@H](O)[C@H](N=C(N)N)[C@@H](O)[C@@H]3N=C(N)N)O[C@@H](C)[C@]2(O)C=O)O[C@@H](CO)[C@H](O)[C@H]1O` was tested, and the MIC [1] was “Active”.
